According to patent US20250101052A1, “COMPOUND FOR EGFR KINASE INHIBITOR, COMPOSITION, AND USE THEREOF” (INNOVATION INSTITUTE FOR ARTIFICIAL INTELLIGENCE IN …, priority 2021, published 2025):

How the values were obtained:
[1] = Detection of oral plasma exposure in rats; type: in vivo; settings: rat, SD rats, p.o. 10 mg/kg
Description: Detection of oral plasma exposure in rats: The compounds of the present invention have good oral in-vivo exposure in rats
After a single dose of 10 mg/kg oral administration of the compound to be tested in SD rats, blood samples were collected at different time points.
Standard curve and quality control sample preparation processing: The mixed reserve solution of the compound to be tested was taken and diluted with 50% methanol water into standard working solutions containing respective compounds with concentrations of 20, 40, 100, 200, 400, 1000, 2000, 4000, 10000, and 20000 ng/mL, as well as 60, 600, and 16000 ng/mL quality control working solutions. […] of a blank matrix was taken. […] of the standard curve working solutions and the quality control working solutions were added to prepare standard curves containing respective compounds with concentrations of 1.00, 2.00, 5.00, 10.00, 20.00, 50.00, 100.00, 200.00, 500.00, and 1000.00 ng/mL, as well as quality control samples with concentrations of 3.00, 30.00, and 800.00 ng/mL, respectively. 400 μL of acetonitrile (containing internal standard Verpmil of 2 ng/mL) was added. After vortex oscillation at 700 rcf for 10 minutes, centrifugation was conducted at 3300 rcf at 4° C. for 10 minutes. The supernatant was taken for LC-MS/MS analysis.
Unknown sample preparation processing: 50 μL of the sample to be tested was taken. 400 μL of acetonitrile (containing internal standard Verpmil of 2 ng/mL) was added. After vortex oscillation at 700 rcf for 10 minutes, centrifugation was conducted at 3300 rcf and 4° C. for 10 minutes. The supernatant was taken for LC-MS/MS analysis.

A431 cells = assay: A431 cell proliferation inhibition (SRB); type: cell-based; settings: Homo sapiens, A-431, wild-type EGFR, 72 hours
Description: A431 cell proliferation inhibition: The compounds of the present invention have good selectivity to wild-type EGFR
(§1) a) The medium was preheated in a 37° C. water bath.
(§2) b) The cryopreservation tube was taken from the liquid nitrogen tank, quickly placed in a 37° C. water bath, and melted completely within 1 minute.
(§3) c) The cell suspension was transferred to a 15 mL centrifuge tube containing a 10 mL medium and centrifuged at 1000 rpm for 4 minutes.
(§4) d) The supernatant was discarded, the cells were resuspended in a 1 mL medium and transferred to a […] culture dish containing a 10 mL medium, 20% serum and 50 ng/mL EGF were administered to the first-generation medium, and culture was conducted in a 37° C. and 5% CO2 incubator.
(§5) b) The cells in the culture dish were blown evenly with a 5 mL pipette, and 500 μL of the cells were pipetted out to be inoculated into a new […] culture dish and cultured in a 37° C. and 5% CO2 incubator.
(§6) a) The compound to be tested (10 mM stock solution) was diluted with 100% DMSO to 1 mM, and diluted with a culture solution in a 24-well plate to prepare of a working solution of 2 μM concentration.
(§7) b) The 2 μM working solution was diluted with a triple dilution method to obtain working solutions with approximate concentrations of 2 μM, 600 nM, 200 nM, 60 nM, and 20 nM.
(§8) a) The cells at the logarithmic growth phase were centrifuged at 1000 rpm for 4 minutes, resuspended with a medium (containing 10% serum and 50 ng/mL EGF), and counted.
(§9) b) The cells were inoculated into a 96-well plate with a cell density of 4000 cells/well, and placed in a 37° C. and 5% CO2 incubator for culture for 12 hours.
(§10) a) The prepared compound was added to a 96-well plate, with 100 μL per well. The final concentrations were 1 μM, 300 nM, 100 nM, 30 nM, 10 nM, and 0 nM, and the final concentration of DMSO was 0.2%. A medium served as a blank control.
(§11) b) The cells were placed in 37° C. and 5% CO2 incubator for culture for 72 hours.
(§12) (5) Cell Viability Testing
a) The cell supernatant was discarded, rinsed once with 1×PBS, and fixed with 10% trichloroacetic acid for 1 hour. The trichloroacetic acid was discarded, excess trichloroacetic acid was washed off with tap water, and the 96-well plate was dried in a 60° C. oven.
b) 70 μL of an SRB stain was added to each well of the dry 96-well plate for staining at a room temperature for 30 minutes. Excess SRB stain was washed off with 1% glacial acetic acid, and the 96-well plate was dried in a 60° C. oven.
c) SRB was dissolved with 100 μL of 10 mM Tris-base solution. The absorbance was detected at 540 nm ultraviolet absorption using the microplate reader. The data was analyzed.
(§13) The data was analyzed using GraphPad Prism 8.0 software to obtain a fitted curve of activity of the compounds. The IC50 of the compounds was fitted from nonlinear regression equation.

[2] = target: EGFR^L858R/T790M/C797S kinase (Homo sapiens (Human), UniProt P00533, C797S/L858R/T790M); assay: EGFR^L858R/T790M/C797S kinase inhibitory activity experiment; type: biochemical; settings: in vitro
Sequence of EGFR^L858R/T790M/C797S kinase (P00533 25-1210 T790M/C797S/L858R): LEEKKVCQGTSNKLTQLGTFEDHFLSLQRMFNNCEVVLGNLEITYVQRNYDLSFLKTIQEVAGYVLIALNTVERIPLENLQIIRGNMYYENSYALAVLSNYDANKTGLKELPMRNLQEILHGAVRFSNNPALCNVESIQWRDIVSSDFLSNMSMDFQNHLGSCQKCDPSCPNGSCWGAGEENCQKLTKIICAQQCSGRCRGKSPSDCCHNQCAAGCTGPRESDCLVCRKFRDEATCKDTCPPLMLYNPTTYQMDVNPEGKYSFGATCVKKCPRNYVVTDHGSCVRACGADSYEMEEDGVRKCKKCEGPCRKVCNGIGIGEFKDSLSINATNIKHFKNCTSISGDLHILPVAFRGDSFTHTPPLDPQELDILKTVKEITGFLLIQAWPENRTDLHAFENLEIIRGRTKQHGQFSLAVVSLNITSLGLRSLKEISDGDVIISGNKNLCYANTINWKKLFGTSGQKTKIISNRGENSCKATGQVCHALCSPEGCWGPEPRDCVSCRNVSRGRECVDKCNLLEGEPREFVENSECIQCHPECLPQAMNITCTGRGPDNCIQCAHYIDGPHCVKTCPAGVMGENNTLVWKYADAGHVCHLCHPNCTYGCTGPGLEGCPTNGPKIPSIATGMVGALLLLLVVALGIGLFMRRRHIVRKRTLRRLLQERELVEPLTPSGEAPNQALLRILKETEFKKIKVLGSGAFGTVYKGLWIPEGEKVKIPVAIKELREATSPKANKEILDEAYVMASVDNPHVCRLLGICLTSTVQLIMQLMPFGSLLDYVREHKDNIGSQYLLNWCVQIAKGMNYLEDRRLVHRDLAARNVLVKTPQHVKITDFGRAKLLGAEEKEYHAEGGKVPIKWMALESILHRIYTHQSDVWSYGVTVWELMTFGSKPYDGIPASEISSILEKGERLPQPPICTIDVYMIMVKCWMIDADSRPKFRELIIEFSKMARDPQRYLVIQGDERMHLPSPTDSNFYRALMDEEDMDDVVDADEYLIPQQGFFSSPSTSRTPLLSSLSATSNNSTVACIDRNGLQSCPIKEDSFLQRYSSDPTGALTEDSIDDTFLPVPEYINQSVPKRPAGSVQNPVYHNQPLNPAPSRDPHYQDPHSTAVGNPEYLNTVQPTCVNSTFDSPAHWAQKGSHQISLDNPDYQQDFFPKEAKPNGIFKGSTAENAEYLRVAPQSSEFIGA
Description: EGFRL^858R/T790M/C797S kinase inhibitory activity experiment: The compounds of the present invention have excellent in-vitro inhibitory activity against EGFR^L858R/T790M/C797S kinase
• Centrifuge (manufacturer: Eppendorf, model: 5430) • Microplate reader (manufacturer: Perkin Elmer, model: Caliper EZ ReaderII) • Echo 550 (manufacturer: Labcyte, model: Echo 550) • Experimental Method • Compound preparation: • A 10 mM storage solution was prepared.
(1) 1×Kinase buffer was prepared.
(2) Preparation of concentration gradient of compound: The tested compound has a test concentration starting from 1 μM, diluted 10 times, with 10 concentrations, and subjected to single-well or multi-well detection. The compound was diluted to a 100% DMSO solution with a final concentration of 100 times in a 384 source plate. […] of the compound at a final concentration of 100 times was transferred to the target plate 384-well-plate using the pipette Echo 550.
(3) A kinase solution with a final concentration of 2.5 times was prepared using 1× Kinase buffer.
(4) 10 μL of the kinase solution with the final concentration of 2.5 times was added to a compound well and a positive control well, respectively; 10 μL of 1×Kinase buffer was added to a negative control well.
(5) Centrifugation was conducted at 1000 rpm for 30 seconds, and the reaction plate was shaken and mixed well, and incubated at a room temperature for 10 minutes.
(6) A mixed solution of ATP with a final concentration of 5/3 times and Kinase substrate 22 was prepared using 1×Kinase buffer.
(7) A mixed solution of 15 μL of ATP with a final concentration of 5/3 times and a substrate was added for initial reaction.
(8) The 384-well-plate was centrifuged at 1000 rpm for 30 seconds, shaken and mixed well, and incubated at a room temperature for 60 minutes.
(9) 30 μL of a termination detection solution was added to stop the kinase reaction. Centrifugation was conducted at 1000 rpm for 30 seconds. Shaking and mixing well were conducted.
(10) The conversion rate was read using Caliper EZ Reader.
where Conversion %_sample is the conversion rate reading of the sample; Conversion %_min: the average value of negative control wells, representing the conversion rate reading of wells without enzyme activity; Conversion %_max: the average value of positive control wells, representing the conversion rate reading of wells without compound inhibition; % Inhibition represents the inhibition rate.
Fitting of Dose-Response Curve
Using the log value of concentration as the X-axis and the percentage inhibition rate as the Y-axis, the dose-response curve was fitted using the log(inhibitor) vs. response —Variable slope of the analysis software GraphPad Prism 5 to obtain the IC50 value of each compound on enzyme activity.

[3] = test system: BaF3-EGFR^L858R/T790M/C797S cells; assay: BaF3 cell proliferation inhibition experiment (CCK-8); type: cell-based; settings: Ba/F3 EGFR-L858R, 72 hours
Source text: BaF3 cell proliferation inhibition experiment: The compounds of the present invention have excellent inhibitory activity against the proliferation of BaF3-EGFR^L858R/T790M/C797S cells
(§14) A. Cell line: BaF3 cells with stable overexpression of wild-type genes are named BaF3-EGFR^WT, and BaF3 cells with stable overexpression of EGFR^L858R/T790M/C797S EGFR^del19/T790M/C797S EGFR^L858R/C797S and EGFR^del19/C797S mutant genes are named BaF3-EGFR^L858R/T790M/C797S BaF3-EGFR^del19/T790M/C797S BaF3-EGFR^L858R/C797S and BaF3-EGFR^del19/C797S cells, respectively. Mediums:
as §1, §2, §3, §4, §5, §6, §7, §8, §9, §10, §11, §12
(§15) a) The 96-well cell culture plate was taken out, and 20 μL of a CCK-8 reagent (Cell Counting Kit-8, Topscience, Catalog No. C0005) was added in the dark.
(§16) b) Mixing well was conducted on a horizontal shaking table at a room temperature at 100 rpm for 5 minutes.
(§17) c) The culture plate was placed in a 37° C. constant-temperature incubator for incubation.
d) Starting from the addition of the CCK-8, the absorbance at 450 nm was read using the TECAN microplate reader at 1 hour, 2 hours, and 3 hours, respectively.
as §13

BaF3-EGFR^WT cells = assay: as above; type: cell-based; settings: Mus musculus, BaF3; cell proliferation, 72 hours; read-out: BaF3-EGFR^WT (IC50 nM)
Description: as §14, §1, §2, §3, §4, §5, §6, §7, §8, §9, §10, §11, §12, §15, §16, §17, §13

[4] = test system: BaF3-EGFR^del19/T790M/C797S cells; assay: as above; type: cell-based; settings: Ba/F3 EGFR-Del19/T790M/C797S; cell proliferation, 72 hours; read-out: BaF3-EGFR^del19 /T790M/C797S (IC50 nM)
Description: as §14, §1, §2, §3, §4, §5, §6, §7, §8, §9, §10, §11, §12, §15, §16, §17, §13

Structure (SMILES) | Cmax [1] [ng/mL] | IC50 (A431 cells) [nM] | IC50 [2] [nM] | IC50 [3] [nM] | IC50 (BaF3-EGFR^WT cells) [nM] | IC50 [4] [nM]
COc1cc(N2CCC(N3CCN(C)CC3)CC2)c(C)cc1Nc1ncc(Cl)c(Nc2cc(C)c(C)cc2P(C)(C)=O)n1 [Compound 12, (2-((5-Chloro-2-((2-methoxy-5-methyl-4-(4-(4-methylpiperazin-1-yl)piperidin-1-yl)phenyl)amino)pyrimidin-4-yl)amino)-4,5-dimethylphenyl)dimethylphosphine oxide] | 1190 | > 500 | 5.3 | 44.4 | – | –
CCc1cc(Nc2ncc(Cl)c(Nc3cc(C)c(C)cc3P(C)(C)=O)n2)c(OC)cc1N1CCC2(CC1)CC(N(C)C)C2 [Compound 17, (2-((5-Chloro-2-((4-(2-(dimethylamino)-7-azaspiro[3.5]non-7-yl)-5-ethyl-2-methoxyphenyl)amino)pyrimidin-4-yl)amino)-4,5-dimethylphenyl)dimethylphosphine oxide] | – | > 500 | 0.77 | 45.4 | – | –
CCc1cc(Nc2ncc(Cl)c(Nc3cccc(Cl)c3P(C)(C)=O)n2)c(OC)cc1N1CCC2(CC1)CC(N(C)C)C2 [Compound 19, (2-chloro-6-((5-chloro-2-((4-(2-(dimethylamino)-7-azaspiro[3.5]nonan-7-yl)-5-ethyl-2-methoxyphenyl)amino)pyrimidin-4-yl)amino)phenyl)dimethylphosphine oxide] | – | > 500 | 0.86 | 47.8 | – | –
COc1cc(N2CCC3(CC2)CC(N(C)C)C3)c(Cl)cc1Nc1ncc(Cl)c(Nc2ccc(C)c(C)c2P(C)(C)=O)n1 [Compound 21, (6-((5-chloro-2-((5-chloro-4-(2-(dimethylamino)-7-azaspiro[3.5]nonan-7-yl)-2-methoxyphenyl)amino)pyrimidin-4-yl)amino)-2,3-dimethylphenyl)dimethylphosphine oxide] | – | > 500 | 0.65 | 33.3 | – | –
COc1cc(N2CCC3(CC2)CC(N(C)C)C3)c(C)cc1Nc1ncc(Cl)c(Nc2ccc(C)c(C)c2P(C)(C)=O)n1 [Compound 23, (6-((5-chloro-2-((4-(2-(dimethylamino)-7-azaspiro[3.5]nonan-7-yl)-2-methoxy-5-methylphenyl)amino)pyrimidin-4-yl)amino)-2,3-dimethylphenyl)dimethylphosphine oxide] | – | > 500 | 0.78 | 39 | – | –
COc1cc(N2CC3(CCN(C)CC3)C2)c(C)cc1Nc1ncc(Cl)c(Nc2ccc(C)c(C)c2P(C)(C)=O)n1 [Compound 32] | – | 962 | 0.92 | 55.4 | – | –
CCc1cc(Nc2ncc(Cl)c(Nc3ccc(C)c(C)c3P(C)(C)=O)n2)c(OC)cc1N1CCC2(CC1)CC(N1CCCC1)C2 [Compound 48, (6-((5-chloro-2-((5-ethyl-2-methoxy-4-(2-(pyrrolidin-1-yl)-7-azaspiro[3.5]nonan-7-yl)phenyl)amino)pyrimidin-4-yl)amino)-2,3-dimethylphenyl)dimethylphosphine oxide] | – | – | 0.0629 | – | 634 | 176
CCc1cc(Nc2ncc(Cl)c(Nc3cc(C)c(C)cc3P(C)(C)=O)n2)c(OC)cc1N1CCC(N2C[C@@H](C)N(C)[C@@H](C)C2)CC1 [Compound 50, (2-((5-chloro-2-((5-ethyl-2-methoxy-4-(4-((3S,5R)-3,4,5-trimethylpiperazin-1-yl)piperidin-1-yl)phenyl)amino)pyrimidin-4-yl)amino)-4,5-dimethylphenyl)dimethylphosphine oxide] | – | – | 0.0707 | – | 942 | 186
CCc1cc(Nc2ncc(Cl)c(Nc3ccc(C)c(C)c3P(C)(C)=O)n2)c(OC)cc1N1CCC2(CCN(C)CC2)CC1 [Compound 55, (6-((5-Chloro-2-((5-ethyl-2-methoxy-4-(9-methyl-3,9-diazaspiro[5.5]undecan-3-yl)phenyl)amino)pyrimidin-4-yl)amino)-2,3-dimethylphenyl)dimethylphosphine oxide] | – | 700 | 0.297 | 48.6 | – | –
